Experimental data: patent US9868772B2 (INDIANA UNIVERSITY RESEARCH AND TECHNOLOGY CORPORATION, priority 2012, dated 2018)
Numbered stars: 1 amine (or outer) side, 2 acyl side, 3 side chain; on linkers, the order of the positions; unused ones are H or OH. Square brackets hold non-standard residues; d marks the D form. Side chains are listed from the residue outwards. Peptide text beside a SMILES is read from it. * marks the point of attachment. γGlu = O=C(O)[C@H](CCC(=O)[*:2])N[*:1]; Palmitoyl = CCCCCCCCCCCCCCCC(=O)*

Assays:
GLP-1 receptor = target: T1, GLP-1 receptor (Homo sapiens, UniProt P43220); experiment: cAMP induction, firefly luciferase reporter assay in HEK293 cells co-transfected with receptor; assay type: cell-based
T1 construct: expressed in transfected cells; host or cells: HEK293
Experimental: (§1) The ability of glucagon analogs to induce cAMP was measured in a firefly luciferase-based reporter assay. […] At the end of the incubation 100 microliters of LucLite luminescence substrate reagent (Perkin-Elmer, Wellesley, Mass.) were added to each well. […] Effective 50% concentrations were calculated by using Origin software (OriginLab, Northampton, Mass.

GIP receptor [1] = target: T2, GIP receptor (Homo sapiens, UniProt P48546); experiment: as above; assay type: cell-based
T2 construct: expressed in transfected cells; host or cells: HEK293
T2 sequence (P48546 22-466): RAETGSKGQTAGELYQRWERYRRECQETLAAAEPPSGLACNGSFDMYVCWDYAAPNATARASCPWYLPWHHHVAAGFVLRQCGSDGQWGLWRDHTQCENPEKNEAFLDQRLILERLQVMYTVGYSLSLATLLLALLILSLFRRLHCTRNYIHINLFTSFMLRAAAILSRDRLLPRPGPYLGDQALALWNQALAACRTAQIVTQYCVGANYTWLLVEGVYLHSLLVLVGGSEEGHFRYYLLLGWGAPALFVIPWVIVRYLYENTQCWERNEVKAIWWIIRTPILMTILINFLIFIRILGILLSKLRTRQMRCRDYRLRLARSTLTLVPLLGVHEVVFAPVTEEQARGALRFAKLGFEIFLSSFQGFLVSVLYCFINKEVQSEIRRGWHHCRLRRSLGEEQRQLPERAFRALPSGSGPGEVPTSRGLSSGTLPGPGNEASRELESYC
Experimental: as §1

glucagon receptor = target: T3, glucagon receptor (Homo sapiens, UniProt P47871); experiment: as above; assay type: cell-based
T3 construct: expressed in transfected cells; host or cells: HEK293
Experimental: as §1

GIP receptor [2] = target: T2, GIP receptor; details: relative to native GIP; cited from earlier work
[3] = Table 2, analogs of SEQ ID NO: 10
[4] = Table 1, analogs of SEQ ID NO: 37
[5] = Table 3, analogs of SEQ ID NO: 12

T3 sequence (P47871 26-477): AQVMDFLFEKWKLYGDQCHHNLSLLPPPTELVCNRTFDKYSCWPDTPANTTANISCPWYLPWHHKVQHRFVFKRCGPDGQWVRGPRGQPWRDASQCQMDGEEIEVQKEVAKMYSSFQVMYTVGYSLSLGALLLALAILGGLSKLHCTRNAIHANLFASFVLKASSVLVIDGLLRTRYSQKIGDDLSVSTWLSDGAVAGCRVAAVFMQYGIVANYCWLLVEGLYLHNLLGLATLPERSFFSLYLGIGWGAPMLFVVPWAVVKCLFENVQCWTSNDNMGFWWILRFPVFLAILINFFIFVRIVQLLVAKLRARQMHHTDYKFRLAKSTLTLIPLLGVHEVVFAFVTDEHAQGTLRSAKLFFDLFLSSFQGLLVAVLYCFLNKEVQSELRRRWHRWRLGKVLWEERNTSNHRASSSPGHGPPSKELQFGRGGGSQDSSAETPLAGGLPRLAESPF
T1 sequence (P43220 24-463): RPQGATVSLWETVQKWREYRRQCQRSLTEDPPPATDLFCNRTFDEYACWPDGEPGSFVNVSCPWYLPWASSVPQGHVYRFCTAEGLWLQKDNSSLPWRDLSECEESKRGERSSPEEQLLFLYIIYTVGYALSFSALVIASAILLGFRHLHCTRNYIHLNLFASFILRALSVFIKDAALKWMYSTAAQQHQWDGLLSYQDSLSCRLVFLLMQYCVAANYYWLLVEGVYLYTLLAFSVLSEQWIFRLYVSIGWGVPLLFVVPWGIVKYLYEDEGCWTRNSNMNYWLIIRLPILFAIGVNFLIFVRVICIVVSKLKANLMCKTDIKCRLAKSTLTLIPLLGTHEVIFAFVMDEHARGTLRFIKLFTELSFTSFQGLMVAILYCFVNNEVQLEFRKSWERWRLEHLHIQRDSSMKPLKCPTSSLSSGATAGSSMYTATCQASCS

Compound: CCCCCCCCCCCCCCCC(=O)N[C@@H](CCC(=O)NCCCC[C@H](NC(=O)[C@H](CC(=O)O)NC(=O)[C@H](CO)NC(=O)[C@@H](NC(=O)[C@H](Cc1ccccc1)NC(=O)[C@@H](NC(=O)CNC(=O)[C@H](CCC(=O)O)NC(=O)[C@H](C)NC(=O)[C@@H](Cc1c[nH]cn1)NC(C)=O)[C@@H](C)O)[C@@H](C)O)C(=O)N[C@@H](CO)C(=O)N[C@@H](CCCCN)C(=O)N[C@@H](Cc1ccc(O)cc1)C(=O)N[C@@H](CC(C)C)C(=O)N[C@@H](CC(=O)O)C(=O)N[C@@H](CCC(=O)O)C(=O)N[C@@H](CCCNC(=N)N)C(=O)N[C@@H](C)C(=O)N[C@@H](C)C(=O)N[C@@H](CCC(N)=O)C(=O)N[C@@H](CC(=O)O)C(=O)N[C@@H](Cc1ccccc1)C(=O)N[C@H](C(=O)N[C@@H](CCC(N)=O)C(=O)N[C@@H](Cc1c[nH]c2ccccc12)C(=O)N[C@@H](CC(C)C)C(=O)N[C@@H](CC(C)C)C(=O)N[C@@H](CCC(=O)O)C(=O)N[C@@H](C)C(=O)NCC(=O)N1CCC[C@H]1C(=O)N[C@@H](CO)C(=O)N[C@@H](CO)C(=O)NCC(=O)N[C@@H](C)C(=O)N1CCC[C@H]1C(=O)N1CCC[C@H]1C(=O)N1CCC[C@H]1C(=O)N[C@@H](CO)C(N)=O)C(C)C)C(=O)O [compound 154] (Ac-[dH]AEGTFTSDK([γGlu-Palmitoyl])SKYLDERAAQDFVQWLLEAGPSSGAPPPS-NH2)
- EC50 (GLP-1 receptor; [3]): 4 pM
- EC50 (GIP receptor [1]; [3]): 24 pM
- EC50 (glucagon receptor; [3]): 847 pM

Compound: CCCCCCCCCCCCCCCC(=O)N[C@@H](CCC(=O)NCCCC[C@H](NC(=O)[C@H](CC(=O)O)NC(=O)[C@H](CO)NC(=O)[C@@H](NC(=O)[C@H](Cc1ccccc1)NC(=O)[C@@H](NC(=O)CNC(=O)[C@H](CCC(N)=O)NC(=O)[C@H](C)NC(=O)[C@@H](Cc1c[nH]cn1)NC(C)=O)[C@@H](C)O)[C@@H](C)O)C(=O)N[C@@H](CO)C(=O)N[C@@H](CCCCN)C(=O)N[C@@H](Cc1ccc(O)cc1)C(=O)N[C@@H](CC(C)C)C(=O)N[C@@H](CC(=O)O)C(=O)N[C@@H](CCC(=O)O)C(=O)N[C@@H](CCCNC(=N)N)C(=O)N[C@@H](C)C(=O)N[C@@H](C)C(=O)N[C@@H](CCC(N)=O)C(=O)N[C@@H](CC(=O)O)C(=O)N[C@@H](Cc1ccccc1)C(=O)N[C@H](C(=O)N[C@@H](CCC(N)=O)C(=O)N[C@@H](Cc1c[nH]c2ccccc12)C(=O)N[C@@H](CC(C)C)C(=O)N[C@@H](CC(C)C)C(=O)N[C@@H](CCC(=O)O)C(=O)NCC(=O)NCC(=O)N1CCC[C@H]1C(=O)N[C@@H](CO)C(=O)N[C@@H](CO)C(=O)NCC(=O)N[C@@H](C)C(=O)N1CCC[C@H]1C(=O)N1CCC[C@H]1C(=O)N1CCC[C@H]1C(=O)N[C@@H](CO)C(N)=O)C(C)C)C(=O)O [compound 13]
- EC50 (GLP-1 receptor; [4]): 4 pM
- EC50 (GIP receptor [1]; [4]): 4 pM
- EC50 (glucagon receptor; [4]): 2 pM

Compound: CCCCCCCCCCCCCCCC(=O)N[C@@H](CCC(=O)NCCCC[C@H](NC(=O)[C@H](CC(=O)O)NC(=O)[C@H](CO)NC(=O)[C@@H](NC(=O)[C@H](Cc1ccccc1)NC(=O)[C@@H](NC(=O)CNC(=O)[C@H](CCC(N)=O)NC(=O)[C@H](C)NC(=O)[C@@H](Cc1ccc(O)cc1)NC(C)=O)[C@@H](C)O)[C@@H](C)O)C(=O)N[C@@H](CO)C(=O)N[C@@H](CCCCN)C(=O)N[C@@H](Cc1ccc(O)cc1)C(=O)N[C@@H](CC(C)C)C(=O)N[C@@H](CC(=O)O)C(=O)N[C@@H](CCC(=O)O)C(=O)N[C@@H](CCCNC(=N)N)C(=O)N[C@@H](C)C(=O)N[C@@H](C)C(=O)N[C@@H](CCC(N)=O)C(=O)N[C@@H](CC(=O)O)C(=O)N[C@@H](Cc1ccccc1)C(=O)N[C@H](C(=O)N[C@@H](CCC(N)=O)C(=O)N[C@@H](Cc1c[nH]c2ccccc12)C(=O)N[C@@H](CC(C)C)C(=O)N[C@@H](CC(C)C)C(=O)N[C@@H](CC(=O)O)C(=O)N[C@@H](C)C(=O)NCC(=O)N1CCC[C@H]1C(=O)N[C@@H](CO)C(=O)N[C@@H](CO)C(=O)NCC(=O)N[C@@H](C)C(=O)N1CCC[C@H]1C(=O)N1CCC[C@H]1C(=O)N1CCC[C@H]1C(=O)N[C@@H](CO)C(N)=O)C(C)C)C(=O)O [compound 143] (Ac-[dY]AQGTFTSDK([γGlu-Palmitoyl])SKYLDERAAQDFVQWLLDAGPSSGAPPPS-NH2)
- EC50 (GLP-1 receptor; [5]): 3 pM
- EC50 (GIP receptor [1]; [5]): 3 pM
- EC50 (glucagon receptor; [5]): 4 pM

Compound: CCCCCCCCCCCCCCCC(=O)N[C@@H](CCC(=O)NCCCC[C@H](NC(=O)[C@H](CC(=O)O)NC(=O)[C@H](CO)NC(=O)[C@@H](NC(=O)[C@H](Cc1ccccc1)NC(=O)[C@@H](NC(=O)CNC(=O)[C@H](CCC(N)=O)NC(=O)[C@H](C)NC(=O)[C@H](N)Cc1c[nH]cn1)[C@@H](C)O)[C@@H](C)O)C(=O)N[C@@H](CO)C(=O)N[C@@H](CCCCN)C(=O)N[C@@H](Cc1ccc(O)cc1)C(=O)N[C@@H](CC(C)C)C(=O)N[C@@H](CC(=O)O)C(=O)N[C@@H](CCC(=O)O)C(=O)N[C@@H](CCCNC(=N)N)C(=O)N[C@@H](C)C(=O)N[C@@H](C)C(=O)N[C@@H](CCC(N)=O)C(=O)N[C@@H](CC(=O)O)C(=O)N[C@@H](Cc1ccccc1)C(=O)N[C@H](C(=O)N[C@@H](CCC(N)=O)C(=O)N[C@@H](Cc1c[nH]c2ccccc12)C(=O)N[C@@H](CC(C)C)C(=O)N[C@@H](CC(C)C)C(=O)N[C@@H](CCC(=O)O)C(=O)NCC(=O)NCC(=O)N1CCC[C@H]1C(=O)N[C@@H](CO)C(=O)N[C@@H](CO)C(=O)NCC(=O)N[C@@H](C)C(=O)N1CCC[C@H]1C(=O)N1CCC[C@H]1C(=O)N1CCC[C@H]1C(=O)N[C@@H](CO)C(N)=O)C(C)C)C(=O)O [compound 16]
- EC50 (GLP-1 receptor; [4]): 2 pM
- EC50 (GIP receptor [1]; [4]): 10 pM
- EC50 (glucagon receptor; [4]): 10 pM

Compound: Ac-[dY]AQGTFTSDYSKYLDERAAQDFVQWLLEAGPSSGAPPPSK([γGlu-γGlu-Palmitoyl])G-NH2 [compound 159]
- EC50 (GLP-1 receptor; [3]): 9 pM
- EC50 (GIP receptor [1]; [3]): 80 pM
- EC50 (glucagon receptor; [3]): 40 pM

Compound: Native glucagon: native human glucagon (SEQ ID NO: 1)
- activity of native GIP at the GIP receptor (GIP receptor [2]): ~0%

Compound: Ac-[dY]AQGTFTSDYSKYLDERAAQDFVQWLLEGGPSSGAPPPSK([γGlu-γGlu-Palmitoyl])G-NH2 [compound 149]
- EC50 (GLP-1 receptor; [3]): 2 pM
- EC50 (GIP receptor [1]; [3]): 8 pM
- EC50 (glucagon receptor; [3]): 12 pM
